Assay results taken from the NIST ThermoML archive (doi:10.1016/j.jct.2015.11.012).

Columns and labels:
[1] = 100 kPa, Liquid; for viscosity: Capillary tube (Ostwald / Ubbelohde) method; for speed of sound: Frequency=2 MHz, Linear variable-path acoustic interferometer; for mass density: Vibrating tube method
[2] = xn = mol fraction of the nth substance listed; conditions: 100 kPa, Liquid; for viscosity: Capillary tube (Ostwald / Ubbelohde) method; for speed of sound: Frequency=2 MHz, Linear variable-path acoustic interferometer; for mass density: Vibrating tube method

OCCCl [1-chloro-2-hydroxyethane]
[1]
Conditions | mass density [kg/m3] | speed of sound [m/s] | viscosity [mPa·s]
303.15 K | 1192.12 | 1342.8 | 2.578
308.15 K | 1186.63 | 1328.5 | 2.259
313.15 K | 1178.05 | 1315.5 | 1.852
318.15 K | 1170.87 | 1301.2 | 1.564

NCCO [2-aminoethan-1-ol]
[1]
Conditions | mass density [kg/m3] | speed of sound [m/s] | viscosity [mPa·s]
303.15 K | 1008.72 | 1703.1 | 14.42
308.15 K | 1004.65 | 1685.8 | 11.71
313.15 K | 1000.74 | 1671.2 | 9.564
318.15 K | 996.04 | 1653.2 | 7.558

NCCO [2-aminoethan-1-ol] + Nc1cccc(Cl)c1
[2], x2 = 0
Conditions | mass density [kg/m3] | speed of sound [m/s] | viscosity [mPa·s]
303.15 K | 1008.72 | 1703.1 | 14.42
308.15 K | 1004.65 | 1685.8 | 11.71
313.15 K | 1000.74 | 1671.2 | 9.564
318.15 K | 996.04 | 1653.2 | 7.558

OCCc1ccccc1 [2-phenylethanol]
[1]
Conditions | mass density [kg/m3] | speed of sound [m/s] | viscosity [mPa·s]
303.15 K | 1012.34 | 1508.4 | 9.045
308.15 K | 1008.63 | 1490.8 | 7.193
313.15 K | 1004.84 | 1470.6 | 6.085
318.15 K | 1000.94 | 1456.4 | 4.984

OCCc1ccccc1 [2-phenylethanol] + Nc1cccc(Cl)c1
[2], x2 = 0
Conditions | mass density [kg/m3] | speed of sound [m/s] | viscosity [mPa·s]
303.15 K | 1012.34 | 1508.4 | 9.045
308.15 K | 1008.63 | 1490.8 | 7.193
313.15 K | 1004.84 | 1470.6 | 6.085
318.15 K | 1000.94 | 1456.4 | 4.984

Nc1cccc(Cl)c1 [3-chlorobenzenamine]
[1]
Conditions | mass density [kg/m3] | speed of sound [m/s] | viscosity [mPa·s]
303.15 K | 1205.32 | 1517.5 | 4.255
308.15 K | 1200.75 | 1501.2 | 3.842
313.15 K | 1196.02 | 1480.3 | 3.43
318.15 K | 1191.25 | 1464.8 | 3.022

Nc1cccc(Cl)c1 [3-chlorobenzenamine] + OCCCl
[2], x1 = 1
Conditions | mass density [kg/m3] | speed of sound [m/s] | viscosity [mPa·s]
303.15 K | 1205.32 | 1517.5 | 4.255
308.15 K | 1200.75 | 1501.2 | 3.842
313.15 K | 1196.02 | 1480.3 | 3.43
318.15 K | 1191.25 | 1464.8 | 3.022
